The test system of data set [1] is MECP2 mutant mice. Kind of data set: Trait amelioration / symptom rescue in Mecp2 mutant mice. It is filed as in vivo, mouse. The note with it: for rescue of motor traits and longevity: male mice, drugs sub-cutaneously.
Data set [2] deals with 129.Mecp2^tm1.1Bird/Y mice. Briefly: Accelerating rotarod task, Mecp2 null males. The format is in vivo, mouse. In general terms: Falling from the rotarod earlier than controls is read as motor impairment.
Data set [3] relates to 129.Mecp2^tm1.1Bird/Y mice. Kind of data set: Open field locomotor activity, Mecp2 null males. It is filed as in vivo, mouse.
Data set [4] concerns Mecp2^tm1.1Bird/Y mice. Kind of data set: Peripheral fat measures of treated Mecp2 null males. The format is in vivo, mouse. The note with it: Example 6/FIG. 9; 25 mg/kg Sub-Q 2x per week. The procedure: The preparation of the agents used in this Example was as follows: metformin hydrochloride, was dissolved in saline (Sigma). The day of injection, the metformin was diluted to 18 parts stock solution, 1 part DMSO, and 1 part ethanol, such that the desired dose for a 20 g mouse was given in 100 ul. […] The animals were treated starting at 5 weeks of age until the age of 10 weeks, or for a period of 5 weeks. Body weights were obtained weekly starting at 5 weeks of age prior to treatment, and ending at 10 weeks, at the end of study. Shown in the FIG. 9 are the weights after 3 weeks of treatment (at 8 weeks of age, panel A) and after 5 weeks of treatment (10 weeks of age, panel D).

Data set [5] has as its system 129.Mecp2^tm1.1Bird/Y mice. Kind of data set: Survival (longevity) of treated Mecp2 null male mice. To be noted: 129.Mecp2^tm1.1Bird/Y males, fluvastatin 3 mg/kg s.c. The format is in vivo, mouse.
For data set [6] the following is noted: cited from earlier work.
For data set [7] the following is noted: in vivo; cited from earlier work.
The conditions of data set [8]: cited from earlier work. This is another data set of the same source.
Data set [9] has as its system cytochrome p450 enzymes. To be noted: cited from earlier work.
For data set [10] the following is noted: cited from earlier work. The source holds these as a separate data set.
Data set [11] concerns 129.Mecp2^tm1.1Bird/Y mice. Briefly: Serum/plasma cholesterol, Mecp2 null males. It is filed as in vivo, mouse. The note with it: by P70; fluvastatin p=0.001, lovastatin p=0.001.
Data set [12] deals with 129.Mecp2^tm1.1Bird/Y mice. Kind of data set: Liver lipid measurement, Mecp2 null males. The note with it: P70; fluvastatin p=0.02; lovastatin p=0.386. It is filed as in vivo, mouse.
Setting [13] is: Example 6/FIG. 9, 25 mg/kg Sub-Q (3 mg/kg elsewhere in the source) 2x per week, vs vehicle.

Where a name gives a salt, the structure may show the parent alone. Read-outs that look alike come from different tables or passages of the source.

Regarding `Cl.F/C(COc1ccc2c(c1)[nH]c1ccccc12)=C1/CN2CCC1CC2` [(E)-2-[2-fluoro-2-(quinuclidin-3-ylidene)ethoxy]-9H-carbazole monohydrochloride], in data set [1] (Mecp2 mice, drugs targeting squalene synthase or squalene epoxidase), the improvement of symptoms result was “did not significantly improve symptoms”.
For the compound `O=S(=O)(c1ccccc1)N(CC(F)(F)F)c1ccc(C(O)(C(F)(F)F)C(F)(F)F)cc1` [T090317], the “motor performance, rotarod” value in [2] (setting [13]) is recorded as “improved motor performance”. Further, the “motor performance, open field activity” value in [3] (setting [13]) is “improved motor performance”. Also, the peripheral fat measures result in [4] was “did not appear to improve”.
For `CC(C)c1c(C(=O)Nc2ccccc2)c(-c2ccccc2)c(-c2ccc(F)cc2)n1CC[C@@H](O)C[C@@H](O)CC(=O)O` [atorvastatin], the “rescue of motor traits and longevity” value in data set [1] is “varying degrees of rescue”.
The half-life is how long it takes for the measured level to halve. In the case of `CC(C)n1c(/C=C/C(O)CC(O)CC(=O)O)c(-c2ccc(F)cc2)c2ccccc21` (stereo not shown) [fluvastatin], the “survival beyond 120 days” value in data set [5] amounted to 57%. The same compound yielded a median longevity in data set [5] (compared to 87 days, p<0.0001) of 122 days. The “Lipophilicity (LogD):” value in data set [6] is given as 1.00-1.25. In [7], the half-life entry was “approximately 96 hours”. In addition, the solubility in water entry in [8] is recorded as “soluble in water”. Further, the “Metabolized by:” value in [9] was “Cyp2C9”. In addition, the “LD50 (oral):” value in data set [10] (mouse, in vivo, po) is reported as greater than 2000 mg/kg.
Turning to `CC[C@H](C)C(=O)O[C@H]1C[C@@H](C)C=C2C=C[C@H](C)[C@H](CC[C@@H]3C[C@@H](O)CC(=O)O3)[C@H]21` [lovastatin], the Rotarod performance result in data set [2] (P56 treated null males vs vehicle, fluvastatin 3 mg/kg s.c. p=0.015, lovastatin […] s.c. p=0.009) was “improves”. Besides, the “Open field activity (beam breaks)” value in data set [3] (P70 treated null males vs vehicle, fluvastatin p=0.026, lovastatin p=0.011) was “increased”. Also, the plasma cholesterol entry in data set [11] was “lowers”. Also, the “elevated lipid concentration in livers” value in data set [12] is “ameliorates”. Further, the “rescue of motor traits and longevity” value in data set [1] is recorded as “best rescue”. Besides, the “Lipophilicity (LogD):” value in data set [6] is 1.75-1.50. Also, the “Metabolized by:” value in data set [9] is reported as “Cyp3A4”. Moreover, the “LD50 (oral):” value in data set [10] ((mouse)) was greater than 1000 mg/kg.
On to `CN(C)C(=N)N=C(N)N` [metformin, metformin hydrochloride], for which, in data set [1] (Example 6, 30 mg/kg IP 2x per week, 5 to 10 weeks of age, vs vehicle), the “effect on Mecp2^tm1.1Bird/Y mice (FIG. 9 measures)” value is on record as “little effect”.
Consider `CCC(C)(C)C(=O)O[C@H]1C[C@@H](C)C=C2C=C[C@H](C)[C@H](CC[C@@H]3C[C@@H](O)CC(=O)O3)[C@H]21` [simvastatin], for which the half-life in data set [7] is 2 to 3 h.
